Source: PubChem BioAssay AID2060484 (Molecular Pharmacology Branch, DTP, NCI, 2025)

Test system: SUM149PT spheroids with HUVEC/MSC, viability
Experiment: Anticancer human tumor SUM149PT cell line growth inhibition [GQUAD];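 further: spheroids exposed to drugs for seven days before readout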;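 on viability, T/C: percent viability relative to DMSO vehicle control taken as 100%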
Details: for IC50: curve of first compound; for viability, T/C: stronger effect = lower value
Outline: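 Multi-cell-type spheroids of tumor cells with HUVEC and mesenchymal stem cells, treated with drug combinations. Concentrations descend in half-log steps from near clinical Cmax, or from 10 microM where Cmax is unknown; viability read-out.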

[1] = second compound 0.0316 µM, first compound 0.0316 µM
[2] = second compound 0.0316 µM, first compound 0.1 µM
[3] = second compound 0.0316 µM, first compound 0.316 µM
[4] = second compound 0.0316 µM, first compound 1 µM
[5] = second compound 0.0316 µM, first compound 3.16 µM
[6] = second compound 0.0316 µM, first compound 10 µM
[7] = second compound 0.1 µM, first compound 0.0316 µM
[8] = second compound 0.1 µM, first compound 0.1 µM
[9] = second compound 0.1 µM, first compound 0.316 µM
[10] = second compound 0.1 µM, first compound 1 µM
[11] = second compound 0.1 µM, first compound 3.16 µM
[12] = second compound 0.1 µM, first compound 10 µM
[13] = second compound 0.316 µM, first compound 0.0316 µM
[14] = second compound 0.316 µM, first compound 0.1 µM
[15] = second compound 0.316 µM, first compound 0.316 µM
[16] = second compound 0.316 µM, first compound 1 µM
[17] = second compound 0.316 µM, first compound 3.16 µM
[18] = second compound 0.316 µM, first compound 10 µM
[19] = second compound 1 µM, first compound 0.0316 µM
[20] = second compound 1 µM, first compound 0.1 µM
[21] = second compound 1 µM, first compound 0.316 µM
[22] = second compound 1 µM, first compound 1 µM
[23] = second compound 1 µM, first compound 3.16 µM
[24] = second compound 1 µM, first compound 10 µM
[25] = second compound 3.16 µM, first compound 0.0316 µM
[26] = second compound 3.16 µM, first compound 0.1 µM
[27] = second compound 3.16 µM, first compound 0.316 µM
[28] = second compound 3.16 µM, first compound 1 µM
[29] = second compound 3.16 µM, first compound 3.16 µM
[30] = second compound 3.16 µM, first compound 10 µM
[31] = second compound 10 µM, first compound 0.0316 µM
[32] = second compound 10 µM, first compound 0.1 µM
[33] = second compound 10 µM, first compound 0.316 µM
[34] = second compound 10 µM, first compound 1 µM
[35] = second compound 10 µM, first compound 3.16 µM
[36] = second compound 10 µM, first compound 10 µM

CC1COCCN1c1cc(C2(S(C)(=N)=O)CC2)nc(-c2ccnc3[nH]ccc23)n1 (stereo unspecified) + CN(C)c1ccc(Nc2c3ccc(NC(=O)CCN4CCCC4)cc3nc3cc(NC(=O)CCN4CCCC4)ccc23)cc1 was tested, and the IC50 (second compound 0.0316 µM) was 2.65 µM, the IC50 (second compound 0.1 µM) was 2.76 µM and the IC50 (second compound 0.316 µM) was 2.31 µM. For the same compound, the IC50 (second compound 1 µM) was 2.23 µM, the IC50 (second compound 3.16 µM) was 1.9 µM and the IC50 (second compound 10 µM) was 1.92 µM. It also gave a viability, T/C [1] of 106%, a viability, T/C [2] of 91.5% and a viability, T/C [3] of 97.2%. The viability, T/C [4] was 80.9%, the viability, T/C [5] was 44.2% and the viability, T/C [6] was 29.4%. It also gave a viability, T/C [7] of 97.8%, a viability, T/C [8] of 103% and a viability, T/C [9] of 81.5%. It also gave a viability, T/C [10] of 89.4%, a viability, T/C [11] of 44.7% and a viability, T/C [12] of 25.2%. For the same compound, the viability, T/C [13] was 90.3%, the viability, T/C [14] was 90.4% and the viability, T/C [15] was 83.2%. For the same compound, the viability, T/C [16] was 74.7%, the viability, T/C [17] was 40.4% and the viability, T/C [18] was 29.6%. For the same compound, the viability, T/C [19] was 90.4%, the viability, T/C [20] was 82.7% and the viability, T/C [21] was 77.5%. The viability, T/C [22] was 69.5%, the viability, T/C [23] was 41.1% and the viability, T/C [24] was 22.5%. The viability, T/C [25] was 84.2%, the viability, T/C [26] was 90.7% and the viability, T/C [27] was 86.1%. It also gave a viability, T/C [28] of 69.7%, a viability, T/C [29] of 34.3% and a viability, T/C [30] of 23.4%. For the same compound, the viability, T/C [31] was 95.8%, the viability, T/C [32] was 81.4% and the viability, T/C [33] was 88.6%. For the same compound, the viability, T/C [34] was 67%, the viability, T/C [35] was 36.9% and the viability, T/C [36] was 24.9%.

In the case of COc1ccc([C@@H](O)c2cc(-c3ncnc4cc(N5CCOCC5)ccc34)c(F)cc2Cl)nn1 + CN(C)c1ccc(Nc2c3ccc(NC(=O)CCN4CCCC4)cc3nc3cc(NC(=O)CCN4CCCC4)ccc23)cc1, the IC50 (second compound 0.0316 µM) is reported as 1.87 µM, the IC50 (second compound 0.1 µM) is reported as 1.17 µM and the IC50 (second compound 0.316 µM) is reported as 1.16 µM. The IC50 (second compound 1 µM) was 1.02 µM, the IC50 (second compound 3.16 µM) was 0.96 µM and the IC50 (second compound 10 µM) was 0.844 µM. It also gave a viability, T/C [1] of 103%, a viability, T/C [2] of 86% and a viability, T/C [3] of 73.1%. It also gave a viability, T/C [4] of 63%, a viability, T/C [5] of 38.2% and a viability, T/C [6] of 32.1%. The viability, T/C [7] was 89.1%, the viability, T/C [8] was 92.2% and the viability, T/C [9] was 80.6%. The viability, T/C [10] was 52.4%, the viability, T/C [11] was 34.3% and the viability, T/C [12] was 28.8%. For the same compound, the viability, T/C [13] was 88.1%, the viability, T/C [14] was 87.4% and the viability, T/C [15] was 71.5%. The viability, T/C [16] was 53.7%, the viability, T/C [17] was 34.3% and the viability, T/C [18] was 29.1%. It also gave a viability, T/C [19] of 91.5%, a viability, T/C [20] of 82.8% and a viability, T/C [21] of 77.2%. It also gave a viability, T/C [22] of 50.3%, a viability, T/C [23] of 31.8% and a viability, T/C [24] of 29.2%. The viability, T/C [25] was 82.6%, the viability, T/C [26] was 80% and the viability, T/C [27] was 75.3%. The viability, T/C [28] was 46.8%, the viability, T/C [29] was 33.7% and the viability, T/C [30] was 22.9%. It also gave a viability, T/C [31] of 79.9%, a viability, T/C [32] of 78.8% and a viability, T/C [33] of 73.1%. For the same compound, the viability, T/C [34] was 44.2%, the viability, T/C [35] was 31.4% and the viability, T/C [36] was 20.7%.

With O=C(c1cc(Cc2n[nH]c(=O)c3ccccc23)ccc1F)N1CCN(C(=O)C2CC2)CC1 + CN(C)c1ccc(Nc2c3ccc(NC(=O)CCN4CCCC4)cc3nc3cc(NC(=O)CCN4CCCC4)ccc23)cc1 the IC50 (second compound 0.0316 µM) was > 10 µM, the IC50 (second compound 0.1 µM) was > 10 µM and the IC50 (second compound 0.316 µM) was > 10 µM. The IC50 (second compound 1 µM) was > 10 µM, the IC50 (second compound 3.16 µM) was > 10 µM and the IC50 (second compound 10 µM) was > 10 µM. It also gave a viability, T/C [1] of 104%, a viability, T/C [2] of 103% and a viability, T/C [3] of 94.5%. The viability, T/C [4] was 100%, the viability, T/C [5] was 102% and the viability, T/C [6] was 88.8%. It also gave a viability, T/C [7] of 95%, a viability, T/C [8] of 101% and a viability, T/C [9] of 102%. The viability, T/C [10] was 104%, the viability, T/C [11] was 98% and the viability, T/C [12] was 81.4%. For the same compound, the viability, T/C [13] was 87.6%, the viability, T/C [14] was 93.5% and the viability, T/C [15] was 101%. The viability, T/C [16] was 101%, the viability, T/C [17] was 111% and the viability, T/C [18] was 82%. For the same compound, the viability, T/C [19] was 85.3%, the viability, T/C [20] was 86.6% and the viability, T/C [21] was 89.9%. It also gave a viability, T/C [22] of 104%, a viability, T/C [23] of 92.4% and a viability, T/C [24] of 66.3%. It also gave a viability, T/C [25] of 93.7%, a viability, T/C [26] of 91% and a viability, T/C [27] of 90.5%. The viability, T/C [28] was 94.2%, the viability, T/C [29] was 95.2% and the viability, T/C [30] was 70.5%. For the same compound, the viability, T/C [31] was 78.8%, the viability, T/C [32] was 81.9% and the viability, T/C [33] was 81.9%. It also gave a viability, T/C [34] of 90.4%, a viability, T/C [35] of 86.3% and a viability, T/C [36] of 64.5%.
